Results published in ChEMBL document CHEMBL4138148, “Discovery of novel pyrrolo-pyridine/pyrimidine derivatives bearing pyridazinone moiety as c-Met kinase inhibitors” (Eur J Med Chem, 2017).

Columns and labels:
HepG2 = test: cells; conditions: Homo sapiens, HepG2, 72 h
Description: Cytotoxicity against human HepG2 cells assessed as reduction in cell viability after 72 hrs by MTT assay

A549 = test: cells; conditions: Homo sapiens, A549, 72 h
Description: Cytotoxicity against human A549 cells assessed as reduction in cell viability after 72 hrs by MTT assay

PC-3 = test: cells; conditions: Homo sapiens, PC-3, 72 h
Description: Cytotoxicity against human PC3 cells assessed as reduction in cell viability after 72 hrs by MTT assay

MCF7 = test: cells; conditions: Homo sapiens, MCF7, 72 h
Description: Cytotoxicity against human MCF7 cells assessed as reduction in cell viability after 72 hrs by MTT assay

[1] = target: Hepatocyte growth factor receptor (Homo sapiens, UniProt P08581); test: Inhibition of c-MET (unknown origin) using FAM-labeled peptide as substrate preincubated for 10 mins followed by substrate addition by mobility shift assay
Chain of Hepatocyte growth factor receptor (P08581 whole entry): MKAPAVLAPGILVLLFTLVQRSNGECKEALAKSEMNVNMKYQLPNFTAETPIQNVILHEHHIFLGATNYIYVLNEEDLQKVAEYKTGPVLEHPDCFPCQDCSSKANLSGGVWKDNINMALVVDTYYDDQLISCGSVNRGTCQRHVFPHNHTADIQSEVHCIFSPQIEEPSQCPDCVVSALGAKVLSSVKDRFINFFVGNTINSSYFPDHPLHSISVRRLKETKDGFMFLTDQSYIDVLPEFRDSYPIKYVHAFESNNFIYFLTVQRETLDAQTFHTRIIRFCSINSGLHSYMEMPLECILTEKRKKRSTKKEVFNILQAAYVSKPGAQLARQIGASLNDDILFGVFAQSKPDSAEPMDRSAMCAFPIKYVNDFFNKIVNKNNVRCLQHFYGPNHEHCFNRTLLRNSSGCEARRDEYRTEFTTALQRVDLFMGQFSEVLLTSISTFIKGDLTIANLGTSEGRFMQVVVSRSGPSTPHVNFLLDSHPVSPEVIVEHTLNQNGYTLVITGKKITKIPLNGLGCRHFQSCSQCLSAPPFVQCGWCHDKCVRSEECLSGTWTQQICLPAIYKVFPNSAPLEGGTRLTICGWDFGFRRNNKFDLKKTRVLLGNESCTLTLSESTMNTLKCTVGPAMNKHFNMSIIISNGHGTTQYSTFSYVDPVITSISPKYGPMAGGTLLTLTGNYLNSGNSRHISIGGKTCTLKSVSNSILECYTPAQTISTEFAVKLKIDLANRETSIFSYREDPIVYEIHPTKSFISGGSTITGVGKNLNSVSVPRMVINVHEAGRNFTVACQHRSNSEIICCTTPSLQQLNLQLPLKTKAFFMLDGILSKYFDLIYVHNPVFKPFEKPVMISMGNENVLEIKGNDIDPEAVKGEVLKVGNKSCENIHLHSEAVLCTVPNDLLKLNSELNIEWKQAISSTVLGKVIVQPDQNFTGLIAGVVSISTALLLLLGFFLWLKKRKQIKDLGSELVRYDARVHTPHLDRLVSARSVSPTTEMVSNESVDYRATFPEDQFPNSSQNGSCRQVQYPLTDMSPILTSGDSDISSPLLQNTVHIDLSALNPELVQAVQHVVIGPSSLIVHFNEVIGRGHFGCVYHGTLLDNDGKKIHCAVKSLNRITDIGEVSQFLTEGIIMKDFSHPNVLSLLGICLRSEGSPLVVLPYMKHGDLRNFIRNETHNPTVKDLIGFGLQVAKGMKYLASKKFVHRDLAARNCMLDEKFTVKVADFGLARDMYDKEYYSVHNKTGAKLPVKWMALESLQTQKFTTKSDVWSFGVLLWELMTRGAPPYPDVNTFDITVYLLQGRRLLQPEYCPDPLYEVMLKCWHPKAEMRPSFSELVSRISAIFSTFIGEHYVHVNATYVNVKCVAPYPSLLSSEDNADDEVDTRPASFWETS

Structure (SMILES)	IC50 (HepG2)	IC50 (A549)	IC50 (PC-3)	IC50 (MCF7)	IC50 [1]
COc1ccc(-n2ccc(=O)c(C(=O)Nc3ccc(Oc4ccnc5[nH]ccc45)c(F)c3)n2)cc1	> 60 µM	> 60 µM	46.4 µM	55.4 µM	
O=C(Nc1ccc(Oc2ccnc3[nH]ccc23)c(F)c1)c1nn(-c2ccc(Cl)c(F)c2)ccc1=O	9.61 µM	10.3 µM	13.6 µM	11.6 µM	
O=C(Nc1ccc(Oc2ccnc3[nH]ccc23)c(F)c1)c1nn(-c2ccc(Br)cc2F)ccc1=O	56.5 µM	55.7 µM	8.8 µM	23.5 µM	
O=C(Nc1ccc(Oc2ccnc3[nH]ccc23)c(F)c1)c1nn(-c2ccc(Cl)c(C(F)(F)F)c2)ccc1=O	11.9 µM	13.4 µM	5.5 µM	11.6 µM	
O=C(Nc1ccc(Oc2ccnc3[nH]ccc23)c(F)c1)c1nn(-c2ccccc2)ccc1=O	24.9 µM	56.8 µM	38.6 µM	34.9 µM	
O=C(Nc1ccc(Oc2ccnc3[nH]ccc23)cc1)c1nn(-c2ccc(Cl)c(F)c2)ccc1=O	5.24 µM	2.58 µM	7.78 µM	3.11 µM	0.17 µM
Cn1ccc2c(Oc3ccc(NC(=O)c4nn(-c5ccc(Br)cc5)ccc4=O)cc3)ccnc21	39.2 µM	59.4 µM	23 µM	16.2 µM	
Cn1ccc2c(Oc3ccc(NC(=O)c4nn(-c5ccccc5)ccc4=O)cc3F)ccnc21	> 60 µM	> 60 µM	> 60 µM	> 60 µM	
O=C(Nc1ccc(Oc2ccnc3[nH]ccc23)cc1)c1nn(-c2ccc(Cl)cc2)ccc1=O	19.5 µM	25.1 µM	32.4 µM	10.6 µM	
Cn1ccc2c(Oc3ccc(NC(=O)c4nn(-c5ccc(Br)cc5F)ccc4=O)cc3)ccnc21	31.2 µM	35.7 µM	20.5 µM	19.8 µM	
COc1ccc(-n2ccc(=O)c(C(=O)Nc3ccc(Oc4ccnc5c4ccn5C)cc3)n2)cc1	> 60 µM	> 60 µM	> 60 µM	> 60 µM	
O=C(Nc1ccc(Oc2ccnc3[nH]ccc23)cc1)c1nn(-c2ccc(Br)cc2)ccc1=O	4.28 µM	6.24 µM	8.04 µM	7.89 µM	
Cn1ccc2c(Oc3ccc(NC(=O)c4nn(-c5ccc(Cl)c(F)c5)ccc4=O)cc3)ccnc21	> 60 µM	> 60 µM	32.7 µM	16.8 µM	
O=C(Nc1ccc(Oc2ccnc3[nH]ccc23)c(F)c1)c1nn(-c2ccc(Cl)cc2)ccc1=O	> 60 µM	> 60 µM	42.5 µM	> 60 µM	
O=C(Nc1ccc(Oc2ccnc3[nH]ccc23)c(F)c1)c1nn(-c2ccc(Br)cc2)ccc1=O	68 µM	> 60 µM	40.8 µM	11.6 µM	
Cn1ccc2c(Oc3ccc(NC(=O)c4nn(-c5ccccc5)ccc4=O)cc3)ccnc21	56.2 µM	51.7 µM	58.2 µM	45.1 µM	
COc1ccc(-n2ccc(=O)c(C(=O)Nc3ccc(Oc4ccnc5[nH]ccc45)cc3)n2)cc1	50.8 µM	53.1 µM	> 60 µM	21.6 µM	
Cn1ccc2c(Oc3ccc(NC(=O)c4nn(-c5ccc(Cl)c(C(F)(F)F)c5)ccc4=O)cc3)ccnc21	23.4 µM	11.4 µM	10.3 µM	15.2 µM	
Cn1ccc2c(Oc3ccc(NC(=O)c4nn(-c5ccc(Cl)cc5)ccc4=O)cc3)ccnc21	> 60 µM	> 60 µM	> 60 µM	> 60 µM	
O=C(Nc1ccc(Oc2ccnc3[nH]ccc23)cc1)c1nn(-c2ccccc2)ccc1=O	17.8 µM	10.5 µM	15 µM	15.6 µM	
Cn1ccc2c(Oc3ccc(NC(=O)c4nn(-c5ccc(Cl)c(C(F)(F)F)c5)ccc4=O)cc3F)ccnc21	13.5 µM	17.7 µM	20.9 µM	18.4 µM	
Cc1cc(=O)n(-c2ccccc2OC(F)(F)F)nc1C(=O)Nc1ccc(Oc2ncnc3[nH]ccc23)cc1	22.8 µM	16.2 µM	22.5 µM	32 µM	
O=C(Nc1ccc(Oc2ccnc3[nH]ccc23)cc1)c1nn(-c2ccc(Br)cc2F)ccc1=O	46.4 µM	26.1 µM	12.8 µM	17.9 µM	
Cc1cc(=O)n(-c2cccc(C(F)(F)F)c2)nc1C(=O)Nc1ccc(Oc2ncnc3[nH]ccc23)cc1	9.47 µM	7.57 µM	3.46 µM	4.56 µM	

Further lines, results first:

IC50 (HepG2)	IC50 (A549)	IC50 (PC-3)	IC50 (MCF7)	IC50 [1]	Structure (SMILES)
11.2 µM	5.12 µM	16.4 µM	4.13 µM		Cc1cc(=O)n(-c2ccccc2Cl)nc1C(=O)Nc1ccc(Oc2ncnc3c2ccn3C)cc1
33.6 µM	47.3 µM	18.8 µM	27.7 µM		Cc1cc(=O)n(-c2ccc(Br)cc2F)nc1C(=O)Nc1ccc(Oc2ncnc3c2ccn3C)cc1
> 60 µM	> 60 µM	> 60 µM	> 60 µM		Cn1ccc2c(Oc3ccc(NC(=O)c4nn(-c5ccc(Cl)cc5)ccc4=O)cc3F)ccnc21
> 60 µM	> 60 µM	> 60 µM	> 60 µM		Cc1cc(=O)n(-c2ccccc2OC(F)(F)F)nc1C(=O)Nc1ccc(Oc2ncnc3c2ccn3C)c(F)c1
32 µM	6.12 µM	13.3 µM	26.6 µM		Cc1cc(=O)n(-c2ccc(Br)cc2F)nc1C(=O)Nc1ccc(Oc2ncnc3[nH]ccc23)c(F)c1
27.2 µM	5.86 µM	19.1 µM	7.84 µM		Cc1cc(=O)n(-c2ccccc2C(F)(F)F)nc1C(=O)Nc1ccc(Oc2ncnc3c2ccn3C)cc1
> 60 µM	25.2 µM	5.16 µM	27 µM		Cc1cc(=O)n(-c2ccccc2OC(F)(F)F)nc1C(=O)Nc1ccc(Oc2ncnc3c2ccn3C)cc1
> 60 µM	14.4 µM	6.67 µM	> 60 µM		Cc1cc(=O)n(-c2ccc(Br)cc2F)nc1C(=O)Nc1ccc(Oc2ncnc3c2ccn3C)c(F)c1
> 60 µM	> 60 µM	> 60 µM	33.6 µM		Cn1ccc2c(Oc3ccc(NC(=O)c4nn(-c5ccc(Br)cc5)ccc4=O)cc3F)ccnc21
3.66 µM	3.77 µM	2.73 µM	3.21 µM	20.7 µM	Cc1cc(=O)n(-c2ccc(Br)cc2F)nc1C(=O)Nc1ccc(Oc2ncnc3[nH]ccc23)cc1
> 60 µM	> 60 µM	50.5 µM	> 60 µM		Cc1ccc(-n2nc(C(=O)Nc3ccc(Oc4ncnc5c4ccn5C)c(F)c3)c(C)cc2=O)cc1
> 60 µM	23.4 µM	> 60 µM	30.8 µM		Cc1cc(=O)n(-c2cccc(F)c2)nc1C(=O)Nc1ccc(Oc2ncnc3c2ccn3C)cc1
18.8 µM	18.5 µM	20.4 µM	18.9 µM		Cc1ccc(-n2nc(C(=O)Nc3ccc(Oc4ncnc5[nH]ccc45)c(F)c3)c(C)cc2=O)cc1
> 60 µM	> 60 µM	> 60 µM	> 60 µM		Cc1cc(=O)n(-c2ccccc2Cl)nc1C(=O)Nc1ccc(Oc2ncnc3c2ccn3C)c(F)c1
12.8 µM	42.4 µM	17.3 µM	24.5 µM		Cc1cc(=O)n(-c2ccc(F)cc2)nc1C(=O)Nc1ccc(Oc2ncnc3[nH]ccc23)c(F)c1
> 60 µM	> 60 µM	> 60 µM	4.8 µM		Cc1cc(=O)n(-c2ccc(F)cc2)nc1C(=O)Nc1ccc(Oc2ncnc3[nH]ccc23)cc1
> 60 µM	> 60 µM	8.99 µM	> 60 µM		Cc1cc(=O)n(-c2cccc(F)c2)nc1C(=O)Nc1ccc(Oc2ncnc3c2ccn3C)c(F)c1
26.3 µM	35.1 µM	15.6 µM	11.8 µM		Cc1cc(=O)n(-c2cccc(C(F)(F)F)c2)nc1C(=O)Nc1ccc(Oc2ncnc3[nH]ccc23)c(F)c1
22.1 µM	> 60 µM	17.9 µM	16.6 µM		Cn1ccc2c(Oc3ccc(NC(=O)c4nn(-c5ccc(Cl)c(F)c5)ccc4=O)cc3F)ccnc21
3.18 µM	34.8 µM	14.6 µM	9.67 µM		Cc1cc(=O)n(-c2cccc(F)c2)nc1C(=O)Nc1ccc(Oc2ncnc3[nH]ccc23)cc1
> 60 µM	35.4 µM	25.9 µM	> 60 µM		Cc1cc(=O)n(-c2ccccc2C(F)(F)F)nc1C(=O)Nc1ccc(Oc2ncnc3c2ccn3C)c(F)c1
> 60 µM	16.2 µM	> 60 µM	11.7 µM		Cc1cc(=O)n(-c2ccccc2OC(F)(F)F)nc1C(=O)Nc1ccc(Oc2ncnc3[nH]ccc23)c(F)c1
7.46 µM	6.4 µM	9.61 µM	3.62 µM	27 µM	Cc1ccc(-n2nc(C(=O)Nc3ccc(Oc4ncnc5[nH]ccc45)cc3)c(C)cc2=O)cc1
33.8 µM	> 60 µM	> 60 µM	10.8 µM		Cc1ccc(-n2nc(C(=O)Nc3ccc(Oc4ncnc5c4ccn5C)cc3)c(C)cc2=O)cc1
> 60 µM	> 60 µM	> 60 µM	> 60 µM		COc1ccc(-n2ccc(=O)c(C(=O)Nc3ccc(Oc4ccnc5c4ccn5C)c(F)c3)n2)cc1
23.9 µM	26.8 µM	16.3 µM	14.1 µM		Cn1ccc2c(Oc3ccc(NC(=O)c4nn(-c5ccc(Br)cc5F)ccc4=O)cc3F)ccnc21
23.1 µM	31.4 µM	6.68 µM	32 µM		Cc1cc(=O)n(-c2cccc(F)c2)nc1C(=O)Nc1ccc(Oc2ncnc3[nH]ccc23)c(F)c1
